For 1 molecule, MIC results are on record in patent US5420122A, “3-pyrrolidinylthio-1-azabicyclo-[3.2.0]hept-2-ene-2-carboxylic acid compounds” (Fujisawa Pharmaceutical Co., Ltd., priority 1986, dated 1995).

The subject of this assay is Proteus vulgaris 49. Nature of the assay: in vitro antimicrobial activity, two-fold agar-plate dilution method (MIC). The format is cell-based. Conditions: heart infusion agar, 37° C., 20 hours, 10^6 viable cells per ml. On the procedure:
in vitro Antimicrobial Activity
in vitro Antimicrobial Activity was determined by the two-fold agar-plate dilution method as described below.
One loopful of an overnight culture of each test strain in Trypticase-soy broth (10^6 viable cells per ml) was streaked on heart infusion agar (HI-agar) containing graded concentrations of the test compound, and the minimal inhibitory concentration (MIC) was expressed in terms of ug/ml after incubation at 37° C. for 20 hours.

Values after ≈ are worked out from the molar mass of the structure shown.

In the case of `C[C@@H](O)[C@H]1C(=O)N2C(C(=O)O)=C(S[C@@H]3CN[C@H](c4nc[nH]n4)C3)[C@H](C)[C@H]12` [Test Compound, (4R,5S,6S )-6-[(1R) -1-Hydroxyethyl]-4-methyl-7-oxo-3-[(2S,4S)-2-(1H-1,2,4-triazol-3-yl)pyrrolidin-4-ylthio]-1-azabicyclo [3.2.0]hept-2-ene-2-carboxylic acid], the MIC (as a rule, the lowest concentration found to suppress growth) amounted to 0.05 µg/mL (≈ 0.132 µM).
